Source: article PMC6766871 (International Journal of Cancer, 2019)
Where two headings read alike, the source gives them in different places.

Legend:
[1] = body weight monitoring in tumor-bearing mice; format: in vivo, mouse
[2] = system: DMS-114 human SCLC xenograft; assay: antitumor efficacy, DMS-114 lung cancer xenograft in NMRI nu/nu mice; details: for T/C volume: rogaratinib 50 mg/kg BID p.o., docetaxel 30 mg/kg Q7D i.v., carboplatin 80 mg/kg Q7D / paclitaxel 24 mg/kg Q7D i.p., 10 days
[3] = system: LU299 human lung cancer PDX; assay: antitumor efficacy, patient-derived LU299 lung cancer xenograft in nu/nu mice; details: 33 days
LXFL1121 human NSCLC PDX = assay: antitumor efficacy, patient-derived LXFL1121 NSCLC xenograft in NMRI nu/nu mice
CSF1R [4] = target: T1, CSF1R (Homo sapiens, UniProt P07333); assay: KINOMEscan competition binding; details: 100 nM rogaratinib
T1 sequence (P07333 20-972): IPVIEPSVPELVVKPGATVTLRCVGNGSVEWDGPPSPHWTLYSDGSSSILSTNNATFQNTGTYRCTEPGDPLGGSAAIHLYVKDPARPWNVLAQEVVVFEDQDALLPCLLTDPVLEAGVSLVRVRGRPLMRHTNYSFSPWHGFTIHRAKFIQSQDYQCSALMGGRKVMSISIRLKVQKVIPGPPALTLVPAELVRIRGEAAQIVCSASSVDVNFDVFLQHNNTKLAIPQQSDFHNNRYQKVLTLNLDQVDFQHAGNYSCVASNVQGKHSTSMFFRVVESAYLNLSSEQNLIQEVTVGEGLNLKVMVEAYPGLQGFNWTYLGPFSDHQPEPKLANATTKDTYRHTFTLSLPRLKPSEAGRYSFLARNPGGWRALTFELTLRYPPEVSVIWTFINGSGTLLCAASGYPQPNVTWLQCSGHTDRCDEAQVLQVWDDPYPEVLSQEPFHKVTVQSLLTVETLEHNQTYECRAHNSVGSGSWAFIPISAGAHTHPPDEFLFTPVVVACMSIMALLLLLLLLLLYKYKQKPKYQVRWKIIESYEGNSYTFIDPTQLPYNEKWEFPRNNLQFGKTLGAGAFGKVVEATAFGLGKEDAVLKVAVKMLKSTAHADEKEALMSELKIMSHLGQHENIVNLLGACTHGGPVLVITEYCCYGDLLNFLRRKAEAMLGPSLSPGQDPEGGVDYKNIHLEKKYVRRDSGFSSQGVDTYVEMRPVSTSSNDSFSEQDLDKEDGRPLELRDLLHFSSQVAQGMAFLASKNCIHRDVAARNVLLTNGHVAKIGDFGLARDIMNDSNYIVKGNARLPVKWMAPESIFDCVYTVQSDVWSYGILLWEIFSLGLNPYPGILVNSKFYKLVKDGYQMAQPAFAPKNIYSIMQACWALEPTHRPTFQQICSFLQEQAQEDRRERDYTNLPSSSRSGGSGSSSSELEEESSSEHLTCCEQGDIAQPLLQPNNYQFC

FGFR2 [5] = target: T2, FGFR2 (Homo sapiens, UniProt P21802); assay: KINOMEscan competition binding
T2 sequence (P21802 481-770 limits assumed): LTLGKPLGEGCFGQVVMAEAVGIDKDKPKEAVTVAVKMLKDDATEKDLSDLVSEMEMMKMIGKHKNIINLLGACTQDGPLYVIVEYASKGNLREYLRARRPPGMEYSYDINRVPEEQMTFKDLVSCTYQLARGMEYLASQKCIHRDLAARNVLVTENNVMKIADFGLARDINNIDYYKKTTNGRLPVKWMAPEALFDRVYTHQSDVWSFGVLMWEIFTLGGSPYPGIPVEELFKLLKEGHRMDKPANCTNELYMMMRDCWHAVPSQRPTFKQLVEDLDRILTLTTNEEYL

VEGFR1 = VEGFR1 (Homo sapiens, UniProt P17948); assay: KINOMEscan competition binding
Sequence of VEGFR1 (P17948 27-1338): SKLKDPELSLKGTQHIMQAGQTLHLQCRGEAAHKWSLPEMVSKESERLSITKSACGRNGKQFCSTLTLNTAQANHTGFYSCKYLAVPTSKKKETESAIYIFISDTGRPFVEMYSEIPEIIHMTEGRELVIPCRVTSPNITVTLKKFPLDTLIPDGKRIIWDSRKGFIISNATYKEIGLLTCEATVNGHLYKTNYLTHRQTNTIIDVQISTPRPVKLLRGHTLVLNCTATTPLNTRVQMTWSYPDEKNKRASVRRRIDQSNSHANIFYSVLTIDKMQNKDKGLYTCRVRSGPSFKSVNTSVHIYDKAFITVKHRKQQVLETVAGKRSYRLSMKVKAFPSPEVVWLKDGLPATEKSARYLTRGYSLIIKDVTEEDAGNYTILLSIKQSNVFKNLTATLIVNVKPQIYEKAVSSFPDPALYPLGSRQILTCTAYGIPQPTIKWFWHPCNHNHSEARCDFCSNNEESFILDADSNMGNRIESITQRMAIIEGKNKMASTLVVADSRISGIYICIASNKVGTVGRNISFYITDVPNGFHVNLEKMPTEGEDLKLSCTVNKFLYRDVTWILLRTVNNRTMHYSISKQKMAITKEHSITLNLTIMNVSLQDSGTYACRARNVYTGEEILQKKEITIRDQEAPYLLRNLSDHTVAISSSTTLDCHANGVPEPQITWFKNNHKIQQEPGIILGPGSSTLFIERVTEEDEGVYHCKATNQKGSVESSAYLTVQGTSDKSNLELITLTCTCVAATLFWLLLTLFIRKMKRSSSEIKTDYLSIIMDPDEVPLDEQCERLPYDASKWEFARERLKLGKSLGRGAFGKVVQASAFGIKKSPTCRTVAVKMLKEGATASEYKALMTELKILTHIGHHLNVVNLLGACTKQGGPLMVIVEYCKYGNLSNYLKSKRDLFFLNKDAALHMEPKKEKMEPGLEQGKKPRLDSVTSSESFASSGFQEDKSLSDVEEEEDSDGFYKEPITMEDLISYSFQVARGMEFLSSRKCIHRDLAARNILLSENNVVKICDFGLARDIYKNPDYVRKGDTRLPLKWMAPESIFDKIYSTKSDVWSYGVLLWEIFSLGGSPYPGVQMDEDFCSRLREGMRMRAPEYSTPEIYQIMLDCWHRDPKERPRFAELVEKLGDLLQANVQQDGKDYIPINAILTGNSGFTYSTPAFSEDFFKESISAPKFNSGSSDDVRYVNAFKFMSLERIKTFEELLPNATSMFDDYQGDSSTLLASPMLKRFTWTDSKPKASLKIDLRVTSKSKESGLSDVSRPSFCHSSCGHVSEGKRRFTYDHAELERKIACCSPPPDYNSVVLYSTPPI

VEGFR3 [6] = target: T3, VEGFR3 (Homo sapiens, UniProt P35916); assay: KINOMEscan competition binding
T3 sequence (P35916 25-1363): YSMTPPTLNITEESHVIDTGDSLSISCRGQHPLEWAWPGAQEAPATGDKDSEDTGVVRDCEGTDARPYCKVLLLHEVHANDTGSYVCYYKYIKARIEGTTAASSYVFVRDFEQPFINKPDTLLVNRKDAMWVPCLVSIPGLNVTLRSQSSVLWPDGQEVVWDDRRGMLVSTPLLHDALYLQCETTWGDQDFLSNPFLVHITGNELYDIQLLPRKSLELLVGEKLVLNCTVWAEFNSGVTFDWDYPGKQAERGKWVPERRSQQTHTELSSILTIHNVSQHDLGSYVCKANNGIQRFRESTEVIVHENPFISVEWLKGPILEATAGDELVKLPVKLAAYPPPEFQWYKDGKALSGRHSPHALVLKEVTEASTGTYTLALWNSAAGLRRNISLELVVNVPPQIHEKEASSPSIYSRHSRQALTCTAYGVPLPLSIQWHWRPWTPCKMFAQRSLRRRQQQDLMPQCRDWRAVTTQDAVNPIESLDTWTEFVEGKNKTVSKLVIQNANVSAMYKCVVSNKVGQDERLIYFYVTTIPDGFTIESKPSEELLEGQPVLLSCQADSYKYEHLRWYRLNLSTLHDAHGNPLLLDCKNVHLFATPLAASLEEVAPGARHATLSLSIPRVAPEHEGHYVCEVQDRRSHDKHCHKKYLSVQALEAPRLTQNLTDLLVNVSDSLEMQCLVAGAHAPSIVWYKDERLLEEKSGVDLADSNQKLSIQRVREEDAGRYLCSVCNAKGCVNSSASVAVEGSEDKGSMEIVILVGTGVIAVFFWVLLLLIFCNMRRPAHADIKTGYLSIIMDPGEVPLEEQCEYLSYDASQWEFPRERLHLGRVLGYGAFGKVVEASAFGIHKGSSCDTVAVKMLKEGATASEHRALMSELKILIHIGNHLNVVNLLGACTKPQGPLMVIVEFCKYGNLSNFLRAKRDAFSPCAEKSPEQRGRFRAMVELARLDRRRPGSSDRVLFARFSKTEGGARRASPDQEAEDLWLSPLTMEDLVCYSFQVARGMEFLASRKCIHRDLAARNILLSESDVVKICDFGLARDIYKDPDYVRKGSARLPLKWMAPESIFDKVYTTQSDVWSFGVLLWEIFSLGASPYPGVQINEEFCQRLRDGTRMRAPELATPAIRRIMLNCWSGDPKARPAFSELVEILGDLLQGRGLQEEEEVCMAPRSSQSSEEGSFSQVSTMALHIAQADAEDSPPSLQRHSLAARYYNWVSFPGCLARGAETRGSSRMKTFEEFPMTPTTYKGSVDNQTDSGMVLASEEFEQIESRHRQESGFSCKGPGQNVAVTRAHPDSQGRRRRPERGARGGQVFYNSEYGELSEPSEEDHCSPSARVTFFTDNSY

468 kinase targets = assay: KINOMEscan profiling, kinase panel; format: binding; details: of 403 non-mutant kinases
FGFR2 [7] = target: T2, FGFR2; assay: radiometric kinase activity assay; format: biochemical
CSF1R [8] = target: T1, CSF1R; assay: kinase inhibition assay; format: biochemical
TIE2 = TIE2 (Homo sapiens, UniProt Q02763); assay: kinase inhibition assay; format: biochemical
Sequence of TIE2 (Q02763 23-1124): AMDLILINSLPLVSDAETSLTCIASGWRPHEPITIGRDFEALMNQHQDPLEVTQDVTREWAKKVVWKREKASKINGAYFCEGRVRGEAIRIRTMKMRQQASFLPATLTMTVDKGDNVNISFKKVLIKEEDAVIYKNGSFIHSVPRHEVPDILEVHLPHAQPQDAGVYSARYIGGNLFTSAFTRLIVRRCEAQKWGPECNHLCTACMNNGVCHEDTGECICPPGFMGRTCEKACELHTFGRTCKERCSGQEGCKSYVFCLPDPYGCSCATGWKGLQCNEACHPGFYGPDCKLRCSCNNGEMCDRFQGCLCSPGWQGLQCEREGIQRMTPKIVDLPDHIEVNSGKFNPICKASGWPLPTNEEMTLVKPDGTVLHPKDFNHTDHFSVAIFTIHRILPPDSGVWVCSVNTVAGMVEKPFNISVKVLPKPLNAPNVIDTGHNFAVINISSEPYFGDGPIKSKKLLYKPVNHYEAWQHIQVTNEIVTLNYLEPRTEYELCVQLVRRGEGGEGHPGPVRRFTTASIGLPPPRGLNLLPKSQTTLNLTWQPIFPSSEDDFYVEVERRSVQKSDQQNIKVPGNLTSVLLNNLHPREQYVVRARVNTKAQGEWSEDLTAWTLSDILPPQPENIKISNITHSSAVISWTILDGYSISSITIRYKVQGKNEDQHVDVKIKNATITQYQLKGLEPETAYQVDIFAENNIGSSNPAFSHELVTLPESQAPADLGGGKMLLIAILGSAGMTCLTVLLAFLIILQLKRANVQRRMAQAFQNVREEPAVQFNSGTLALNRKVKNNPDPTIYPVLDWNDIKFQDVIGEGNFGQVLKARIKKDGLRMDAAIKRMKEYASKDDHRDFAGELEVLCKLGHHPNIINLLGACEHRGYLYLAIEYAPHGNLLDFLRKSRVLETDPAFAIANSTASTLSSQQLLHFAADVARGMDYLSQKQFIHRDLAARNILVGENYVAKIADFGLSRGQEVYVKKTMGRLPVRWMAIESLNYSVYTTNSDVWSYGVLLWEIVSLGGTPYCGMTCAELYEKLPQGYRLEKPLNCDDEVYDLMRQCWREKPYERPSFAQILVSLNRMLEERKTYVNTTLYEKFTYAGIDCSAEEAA

VEGFR3 [9] = target: T3, VEGFR3; assay: kinase inhibition assay; format: biochemical
77 non-kinase targets = assay: PanLabs Safety screen, whole panel; details: 10 µM
FGF2-stimulated HUVEC = assay: HUVEC growth assay, FGF2-stimulated; format: cell-based; details: Homo sapiens, 72 h, read-out: IC50 inhibition of FGF2-stimulated growth
VEGF-A-stimulated HUVEC = assay: HUVEC growth assay, VEGF-A-stimulated; format: cell-based, human; details: for IC50: Homo sapiens, 72 h
[10] = system: pERK1/2 (T202/Y204,T185/Y187) in DMS-114 cells; assay: FGF2-induced ERK1/2 phosphorylation, MSD-ELISA; format: cell-based; details: Homo sapiens, DMS-114, read-out: IC50 pERK1/2 (T202/Y204,T185/Y187)
[11] = system: pERK1/2 (T202/Y204,T185/Y187) in MFM-223 cells; assay: FGF2-induced ERK1/2 phosphorylation, MSD-ELISA; format: cell-based; details: Homo sapiens, MFM-223, read-out: IC50 pERK1/2 (T202/Y204,T185/Y187)
[12] = system: pERK1/2 (T202/Y204,T185/Y187) in C51 cells; assay: ERK1/2 phosphorylation, MSD-ELISA; format: cell-based; details: Mus musculus, read-out: IC50 pERK1/2 (T202/Y204,T185/Y187)
[13] = system: p-FGFR4 in MDA-MB-453 cells; assay: Western blot, FGFR4 auto-phosphorylation; format: cell-based, human; details: MDA-MB-453, 0–1,000 nM, 2 h
[14] = system: p-ERK1/2 in MDA-MB-453 cells; assay: Western blot, ERK1/2 phosphorylation; format: cell-based, human; details: MDA-MB-453, 0–1,000 nM, 2 h
[15] = system: p-FGFR2 in NCI-H716 cells; assay: Western blot, FGFR2 auto-phosphorylation; format: cell-based, human; details: NCI-H716, 100 nM
[16] = system: p-ERK1/2 in NCI-H716 cells; assay: Western blot, ERK1/2 phosphorylation; format: cell-based, human; details: NCI-H716, 100 nM
p-ERK1/2 in RT-112 cells = assay: Western blot, ERK1/2 phosphorylation; format: cell-based, human; details: RT-112, 0–10,000 nM
[17] = system: p-ERK1/2 in NCI-H1581 cells; assay: Western blot, ERK1/2 phosphorylation; format: cell-based, human; details: NCI-H1581, 0–10,000 nM
[18] = system: p-ERK1/2 in UM-UC-3 cells; assay: Western blot, ERK1/2 phosphorylation; format: cell-based, human; details: UM-UC-3, 0–10,000 nM
[19] = system: p-ERK1/2 in NCI-H520 cells; assay: Western blot, ERK1/2 phosphorylation; format: cell-based, human; details: NCI-H520, 0–10,000 nM
[20] = system: p-FGFR2 and p-ERK1/2 in NCI-H716 tumors; assay: PK/PD, phosphorylation of FGFR2 and ERK1/2 in NCI-H716 tumor tissue; format: in vivo, mouse
[21] = maximally tolerated dose in Balb/cJ mice; format: in vivo, mouse
[22] = body weight monitoring in tumor-bearing rats; format: in vivo, rat; details: C51 model, nude rats, monotherapy
C51 colon tumors [23] = assay: antitumor efficacy, C51 colon cancer model in nude rats
[24] = plasma pharmacokinetics in NCI-H716 tumor-bearing NMRI nu/nu mice
C51 colon tumors [25] = assay: antitumor efficacy, syngeneic C51 colon cancer model in BALB/cJ mice; details: for partial response (PR) rate (RECIST): 2/9 mice
[26] = system: NCI-H716 human colon cancer xenograft; assay: antitumor efficacy, NCI-H716 colorectal xenograft in NMRI nu/nu mice; details: 50 mg/kg BID; 1/8 mice
[27] = system: FGFR1-amplified squamous NSCLC; details: initial clinical results; cited from earlier work

CC(=O)O[C@@]12CO[C@@H]1C[C@H](O)[C@@]1(C)C(=O)[C@H](O)C3=C(C)[C@@H](OC(=O)[C@H](O)[C@@H](NC(=O)OC(C)(C)C)c4ccccc4)C[C@@](O)([C@@H](OC(=O)c4ccccc4)[C@H]21)C3(C)C [docetaxel, reference compound]
maximum body weight loss ([1]; DMS-114 model): 2.4% | maximum body weight losses ([1]; LU299 model): 14.1% | T/C volume [2]: 0.27 | PR rate ([2]; rogaratinib 50 mg/kg BID, docetaxel 30 mg/kg Q7D, carboplatin 80 mg/kg Q7D / paclitaxel 24 mg/kg Q7D): 40% | PRs (RECIST) ([3]; rogaratinib 50 mg/kg BID, docetaxel Q7D i.v., n=10): 60% | tumor response post-treatment (LXFL1121 human NSCLC PDX; drug-free observation period after treatment): tumor regrowth was observed

COCc1c(-c2cc3cc(C)cc(OC)c3s2)c2c(N)ncnn2c1CN1CCNC(=O)C1 [rogaratinib, 4‐{[4‐amino‐6‐(methoxymethyl)‐5‐(7‐methoxy‐5‐methyl‐1‐benzothiophen‐2‐yl)pyrrolo[2,1‐f][1,2,4]triazin‐7‐yl]methyl}piperazin‐2‐one]
inhibition of binding to CSF1R in KINOMEscan profiling (CSF1R [4]): strong inhibition | Kd (FGFR2 [5]): 5 nM | Kd (VEGFR1): 190 nM | binding affinity to VEGFRs lower compared to FGFR1 (VEGFR1; VEGFR1, VEGFR3 vs FGFR1 Kd): about 100 fold | Kd (VEGFR3 [6]): 150 nM | number of additional kinases besides FGFR1-4 with competition binding >65% (468 kinase targets; 100 nM rogaratinib): 4 | number of additional kinases besides FGFR1-4 with competition binding >65% (468 kinase targets; 1 μM rogaratinib): 18 | IC50 (FGFR2 [7]): < 1 nM | IC50 (CSF1R [8]): 166 nM | IC50 (TIE2): 1300 nM | IC50 (VEGFR3 [9]): 130 nM | number of significant hits in a set of 77 non-kinase targets (77 non-kinase targets): 3 | IC50 (FGF2-stimulated HUVEC): 16 nM | IC50 VEGF-A-stimulated growth higher than FGF2-stimulated growth (VEGF-A-stimulated HUVEC; HUVEC): 28 fold | IC50 (VEGF-A-stimulated HUVEC; read-out: −logIC50 inhibition of VEGF-A-stimulated growth (converted)): 501 nM | IC50 (VEGF-A-stimulated HUVEC; HUVEC, read-out: IC50 inhibition of VEGF-A-stimulated growth): 453 nM | IC50 [10]: 20 nM | IC50 [11]: 11 nM | IC50 [12]: 280 nM | auto-phosphorylation of FGFR4 [13]: inhibited auto‐phosphorylation of FGFR4 | ERK1/2 phosphorylation [14]: preventing ERK1/2 phosphorylation in the same concentration range | auto-phosphorylation of FGFR2 [15]: effectively inhibited | phosphorylation of ERK1/2 [16]: effectively inhibited | inhibition of ERK1/2 phosphorylation (p-ERK1/2 in RT-112 cells): potent inhibition | inhibition of ERK1/2 phosphorylation [17]: potent inhibition | inhibition of ERK1/2 phosphorylation [18]: less sensitive | inhibition of ERK1/2 phosphorylation [19]: less sensitive | FGFR2 and ERK1/2 phosphorylation levels in tumor ([20]; 24-h time point after single dose 35, 50 or 65 mg/kg): returned to levels similar to the vehicle control | FGFR2 and ERK1/2 phosphorylation levels in tumor ([20]; for at least five hours after single dose 35, 50 or 65 mg/kg): strong inhibition of FGFR signaling | maximally tolerated dose ([21]; BID): 50 mg/kg | maximally tolerated dose ([21]; QD): 75 mg/kg | body weight losses ([1]; C51 model, mice, monotherapy): ≤ 10% | maximum body weight loss ([1]; DMS-114 model): 5% | body weight losses ([1]; LU299 PDX model): ≤ 10% | body weight losses ([1]; LXFL1121 PDX model): ≤ 10% | maximum body weight loss ([1]; NCI-H716 model): 5.2% | body weight losses [22]: ≤ 10% | complete responses (CR) (RECIST) (C51 colon tumors [23]; 10 mg/kg QD, 2/8): 25% | stable disease (SD) (RECIST) (C51 colon tumors [23]; 50 mg/kg QD, 1/8): 12.5% | complete responses (CR) (RECIST) (C51 colon tumors [23]; 50 mg/kg QD, 3/8): 37.5% | unbound Cmax concentration in plasma ([24]; single dose 35 mg/kg after 10-day drug-free period): 123 nM | unbound Cmax concentration in plasma ([24]; single dose 50 mg/kg after 10-day drug-free period): 294 nM | unbound Cmax concentration in plasma ([24]; single dose 65 mg/kg after 10-day drug-free period): 357 nM | antitumor efficacy (C51 colon tumors [25]; 25 mg/kg QD p.o., 13 days): not efficacious | partial response (PR) rate (RECIST) (C51 colon tumors [25]; 50 mg/kg QD): 22% | stable disease (SD) rate (RECIST) (C51 colon tumors [25]; 75 mg/kg QD, 1/9 mice): 11% | partial response (PR) rate (RECIST) (C51 colon tumors [25]; 75 mg/kg QD): 22% | partial responses (PR) [26]: 12.5% | T/C volume [2]: 0.34 | T/C volume ([3]; 50 mg/kg BID p.o.): 0.33 | T/C volume (LXFL1121 human NSCLC PDX; 50 mg/kg BID p.o., 22 days): 0.26

CCN1CCN(c2ccc(Nc3cc(N(C)C(=O)Nc4c(Cl)c(OC)cc(OC)c4Cl)ncn3)cc2)CC1 [BGJ398, 3‐(2,6‐dichloro‐3,5‐dimethoxy‐phenyl)‐1‐{6‐[4‐(4‐ethyl‐piperazin‐1‐yl)‐phenylamino]‐pyrimidin‐4‐yl}‐1‐methyl‐urea]
response rate [27]: 11%
